Columns and labels:
[1] = test system: cell proliferation; settings: cited from earlier work
[2] = test system: interleukins; settings: cited from earlier work
[3] = test system: differentiation of cells; settings: cited from earlier work
[4] = in vivo; cited from earlier work
[5] = test system: receptor in a human myeloid leukemia cell line (HL-60); settings: compared with 1,25(OH)2 D3; cited from earlier work
[6] = in vivo; compared with 1,25(OH)2 D3; cited from earlier work
[7] = test system: chicken intestinal receptor; settings: compared with 1,25(OH)2 D3; cited from earlier work
[8] = test system: HL-60 cells; settings: in vitro; more potent than 1,25(OH)2 D3; cited from earlier work
[9] = test system: rat intestinal receptor; settings: compared with 1,25(OH)2 D3; cited from earlier work
[10] = in vivo; cited from earlier work; remark: listed apart in the source
[11] = test system: cell differentiation; settings: more potent than 1,25(OH)2 D3; cited from earlier work
[12] = test system: human monocytic tumour cell line; assay: induction of cell differentiation in a human monocytic tumour cell line; assay type: cell-based; settings: compared with 1,25(OH)2 D3
[13] = test system: human monocytic tumour cell line; assay: inhibition of proliferation of tumour cells; assay type: cell-based; settings: compared with 1,25(OH)2 D3
[14] = calcium metabolism in rats (hypercalciuria, hypercalcemia)
[15] = test system: cell differentiation; settings: cited from earlier work
[16] = cited from earlier work
[17] = test system: intestinal vitamin D receptor; settings: in vitro; compared with 1,25(OH)2 D3; cited from earlier work
[18] = test system: cell proliferation; settings: cited from earlier work; remark: listed apart in the source

## C=C1/C(=C\C=C2/CCC[C@]3(C)[C@@H]([C@H](C)CCCC(C)(C)O)CC[C@@H]23)C[C@@H](O)C[C@@H]1O [1,25(OH)2 D3, 1α,25-dihydroxy-vitamin D3]
[1]
  inhibition of excessive cell proliferation: inhibit excessive cell proliferation
[2]
  effect on interleukins: influences the effects and/or production of interleukins
[3]
  stimulation of differentiation of cells: able to stimulate the differentiation of cells
[4]
  effect on calcium metabolism: well known potent effect

## C=C1/C(=C\C=C2/CCC[C@]3(C)[C@@H]([C@H](C)CCCCC(C)(C)O)CC[C@@H]23)C[C@@H](O)C[C@@H]1O [24-Homo-1,25-dihydroxyvitamin D3]
[5]
  binding affinity to the receptor in HL-60: the same binding affinity as 1,25(OH)2 D3
[6]
  potency in calcium metabolism assessments: significantly less potent
[7]
  binding affinity to the chicken intestinal receptor: the same binding affinity as 1,25(OH)2 D3
[8]
  potency in inducing differentiation of HL-60 cells relative to 1,25(OH)2 D3: 10 fold
[9]
  binding affinity to the rat intestinal receptor: the same binding affinity as 1,25(OH)2 D3

## C=C1/C(=C\C=C2/CCC[C@]3(C)[C@@H]([C@H](C)CCCC(O)(CCC)CCC)CC[C@@H]23)C[C@@H](O)C[C@@H]1O [26,27-diethyl-1α,25-dihydroxyvitamin D3]
[10]
  vitamin D activity (calcium metabolism effects): almost no vitamin D activity
[11]
  potency in inducing cell differentiation relative to 1,25(OH)2 D3: 10 fold

## C=C1/C(=C\C=C2/CCC[C@]3(C)[C@@H]([C@H](C)CCCC(C)(O)CC)CC[C@@H]23)C[C@@H](O)C[C@@H]1O (some centres unmarked) [26-homo-1,25-dihydroxyvitamin D3]
[5]
  binding affinity to the receptor in HL-60: the same binding affinity as 1,25(OH)2 D3
[6]
  potency in calcium metabolism assessments: more potent
[7]
  binding affinity to the chicken intestinal receptor: the same binding affinity as 1,25(OH)2 D3
[8]
  potency in inducing differentiation of HL-60 cells relative to 1,25(OH)2 D3: 10 fold
[9]
  binding affinity to the rat intestinal receptor: the same binding affinity as 1,25(OH)2 D3

## C=C1/C(=C\C=C2/CCC[C@]3(C)[C@@H]([C@H](C)CCCCCC(C)(C)O)CC[C@@H]23)C[C@@H](O)C[C@@H]1O [Compound 36, 1(S),3(R)-Dihydroxy-20(R)-(6-hydroxy-6-methyl-1-heptyl)-9,10-secopregna-5(Z),7(E),10(19)-triene]
[12]
  concentration needed to induce cell differentiation: the same low concentrations as 1,25(OH)2 D3
[13]
  concentration effective in inhibiting proliferation: the same low concentrations as 1,25(OH)2 D3
[14]
  in vivo potency on calcium metabolism: lower in vivo potency

## C=C1/C(=C\C=C2/CCC[C@]3(C)[C@@H]([C@H](C)CCCCCCC(C)(C)O)CC[C@@H]23)C[C@@H](O)C[C@@H]1O [Compound 37, 1(S),3(R)-Dihydroxy-20(R)-(7-hydroxy-7-methyl-1-octyl)-9,10-secopregna-5(Z),7(E),10(19)-triene]
[12]
  concentration needed to induce cell differentiation: the same low concentrations as 1,25(OH)2 D3
[13]
  concentration effective in inhibiting proliferation: the same low concentrations as 1,25(OH)2 D3
[14]
  in vivo potency on calcium metabolism: lower in vivo potency

## C=C1/C(=C\C=C2/CCC[C@]3(C)[C@@H]([C@H](C)/C=C/CCCCC(C)(C)O)CC[C@@H]23)C[C@@H](O)C[C@@H]1O [Compound 38]
[12]
  concentration needed to induce cell differentiation: the same low concentrations as 1,25(OH)2 D3
[13]
  concentration effective in inhibiting proliferation: the same low concentrations as 1,25(OH)2 D3
[14]
  in vivo potency on calcium metabolism: lower in vivo potency

## C=C1/C(=C\C=C2/CCC[C@]3(C)[C@@H]([C@H](C)/C=C/CCCC(C)(C)O)CC[C@@H]23)C[C@@H](O)C[C@@H]1O [Compound 54]
[12]
  concentration needed to induce cell differentiation: the same low concentrations as 1,25(OH)2 D3
[13]
  concentration effective in inhibiting proliferation: the same low concentrations as 1,25(OH)2 D3
[14]
  in vivo potency on calcium metabolism: lower in vivo potency

## C=C1/C(=C\C=C2/CCC[C@]3(C)[C@@H]([C@H](C)/C=C/[C@@H](O)C4CC4)CC[C@@H]23)C[C@@H](O)C[C@@H]1O [MC 903]
[15]
  induction of cell differentiation: potent inducer of cell differentiation
[16]
  activity on calcium metabolism in vivo: only moderate activity
[17]
  binding to the intestinal vitamin D receptor: binds equally well as 1,25(OH)2 D3
[18]
  inhibition of cell proliferation: inhibitor of cell proliferation

Source: patent US5206229A, “Vitamin D analogues” (Leo Pharmaceutical Products LTD, priority 1988, dated 1993)
